From US9758484B2 (Asieris Pharmaceutical Technologies Co., Ltd., priority 2013, dated 2017)
Structures can show the parent of a compound that is named as a salt. Where two headings read alike, the source gives them in different places.

Experiment: Solubility tests of nitroxoline and nitroxoline salts in aqueous buffers and water
Format: physicochemical
Conditions: for solubility at 30 min: thermodynamic from solid; for solubility at a physiologically relevant pH: pH of 4.5 to 8, in contrast to nitroxoline and acid addition salts
Description: 1) Aqueous buffer solutions with varying pH were prepared as follows: • i. Water: distilled water; • ii. pH=1.2 buffer: 7.65 mL 36.5% HCl solution was diluted to 1000 mL with water; • iii. pH=4.5 buffer: 18 g sodium acetate and 9.8 mL acetic acid were diluted to 1000 mL with water; • iv. pH=5.0 buffer: sodium hydroxide was added to 0.2 mol/L monosodium phosphate (NaH2PO4) solution until the pH was adjusted to 5.0; • v. pH=6.0 buffer: 18 g sodium acetate were added into 20 mL acetic acid solution (1 M), and the mixture was diluted to 500 mL with water; • vi. pH=6.8 buffer: 250 mL of 0.2 M monopotassium phosphate (KH2PO4) solution were added to 118 mL of 0.2 M sodium hydroxide solution, and the mixture was diluted to 1000 mL with water; • vii. pH=7.4 buffer: 1.36 g monopotassium phosphate (KH2PO4) were added to 79 mL of 0.1 M sodium hydroxide solution, and the mixture was diluted to 200 mL with water; and • viii pH=8.0 buffer: 5.59 g potassium biphosphate (K2HPO4) and 0.41 g monopotassium. phosphate (KH2PO4) were added to 1000 mL water and mixed.
2) Solubility tests were performed generally as follows:
Under a temperature of 25±2° C., 10 mg of each salt sample was weighed and added to a 100 mL volumetric bottle. 0.25 mL buffer was added to the bottle, which was shaken vigorously for 30 seconds every 5 min.
If the sample was not completely dissolved, 0.7 mL of the same buffer was added, and dissolution was observed by the same shaking procedure.
If the sample was not completely dissolved, 8.5 mL of the same buffer was added, and dissolution was observed by the same shaking procedure.
If the sample was not completely dissolved, 85 mL of the same buffer was added, and dissolution was observed by the same shaking procedure.

[1] = distilled water, 25 °C, water, distilled water, 25±2° C., read-out: Solubility water
[2] = pH 1.2 buffer (dilute HCl), 25 °C, pH 1.2, simulated gastric fluid, pH=1.2 buffer, 25±2° C., read-out: Solubility pH 1.2
[3] = pH 4.5 acetate buffer, 25 °C, pH 4.5, aqueous buffer, pH=4.5 buffer, 25±2° C., read-out: Solubility pH 4.5
[4] = pH 5.0 phosphate buffer, 25 °C, pH 5, aqueous buffer, pH=5.0 buffer, 25±2° C., read-out: Solubility pH 5
[5] = pH 6.0 acetate buffer, 25 °C, pH 6, aqueous buffer, pH=6.0 buffer, 25±2° C., read-out: Solubility pH 6
[6] = pH 6.8 phosphate buffer, 25 °C, pH 6.8, aqueous buffer, pH=6.8 buffer, 25±2° C., read-out: Solubility pH 6.8
[7] = pH 7.4 phosphate buffer, 25 °C, pH 7.4, aqueous buffer, buffer headed 'pH .4', 25±2° C., read-out: Solubility pH .4
[8] = pH 8.0 phosphate buffer, 25 °C, pH 8, aqueous buffer, pH=8.0 buffer, 25±2° C., read-out: Solubility pH 8.0

SMILES | solubility at 30 min (aqueous buffers pH 1.2 to 8, 25 °C, pH 1.2, aqueous buffer, all pHs tested, from pH 1.2 to 8, read-out: solubility at all pHs tested) [mg/mL] | solubility at 30 min [1] [mg/mL] | solubility at 30 min [2] [mg/mL] | solubility at 30 min [3] [mg/mL] | solubility at 30 min [4] [mg/mL] | solubility at 30 min [5] [mg/mL] | solubility at 30 min [6] [mg/mL] | solubility at 30 min [7] [mg/mL] | solubility at 30 min [8] [mg/mL] | solubility at a physiologically relevant pH
Cl.O=[N+]([O-])c1ccc(O)c2ncccc12 [APL-1071, Nitroxoline HCl Salt] | < 0.1 | < 0.1 | < 0.1 | < 0.1 | < 0.1 | < 0.1 | < 0.1 | < 0.1 | < 0.1 | –
O=[N+]([O-])c1ccc(O)c2ncccc12 [APL-1075, Nitroxoline HNO3 Salt] | – | – | – | < 0.1 | < 0.1 | < 0.1 | < 0.1 | – | – | –
O=[N+]([O-])c1ccc([O-])c2ncccc12.[K+] [APL-1077, Nitroxoline Potassium Salt] | – | 1 to 10 | < 0.1 | < 0.1 | < 0.1 | < 0.1 | < 0.1 | < 0.1 | 1 to 10 | significantly improved solubility

Second part, the molecule after the results:

solubility at 30 min (aqueous buffers pH 1.2 to 8, 25 °C, pH 1.2, aqueous buffer, all pHs tested, from pH 1.2 to 8, read-out: solubility at all pHs tested) [mg/mL] | solubility at 30 min [1] [mg/mL] | solubility at 30 min [2] [mg/mL] | solubility at 30 min [3] [mg/mL] | solubility at 30 min [4] [mg/mL] | solubility at 30 min [5] [mg/mL] | solubility at 30 min [6] [mg/mL] | solubility at 30 min [7] [mg/mL] | solubility at 30 min [8] [mg/mL] | solubility at a physiologically relevant pH | SMILES
– | 1 to 10 | < 0.1 | < 0.1 | < 0.1 | < 0.1 | < 0.1 | < 0.1 | < 0.1 | significantly improved solubility | O=[N+]([O-])c1ccc([O-])c2ncccc12.[Na+] [APL-1072, Nitroxoline Sodium Salt]
– | < 0.1 | 1 to 10 | < 0.1 | < 0.1 | < 0.1 | < 0.1 | < 0.1 | < 0.1 | – | Br.O=[N+]([O-])c1ccc(O)c2ncccc12 [APL-1074, Nitroxoline HBr Salt]
